According to patent US6153740A, “cDNA encoding nucleoside transporter” (University of Alberta, priority 1997, dated 2000):
Entries after “also recorded” stand apart in the source; their conditions may differ. Like-named read-outs stand apart in the source and are kept apart here.

Tests used:
[1] = target: T1, CNT1 (Rattus norvegicus, UniProt Q62674); assay: inhibition of CNT1-mediated nucleoside (uridine, AZT, ddC) transport in Xenopus oocytes; assay type: cell-based; settings: for effect on expressed uridine fluxes/transport: inhibitor 1 mM; for selective inhibition of uridine and thymidine fluxes (rCNT1): adenosine, cytidine, uridine>>guanosine, inosine
T1 sequence (Q62674 1-648): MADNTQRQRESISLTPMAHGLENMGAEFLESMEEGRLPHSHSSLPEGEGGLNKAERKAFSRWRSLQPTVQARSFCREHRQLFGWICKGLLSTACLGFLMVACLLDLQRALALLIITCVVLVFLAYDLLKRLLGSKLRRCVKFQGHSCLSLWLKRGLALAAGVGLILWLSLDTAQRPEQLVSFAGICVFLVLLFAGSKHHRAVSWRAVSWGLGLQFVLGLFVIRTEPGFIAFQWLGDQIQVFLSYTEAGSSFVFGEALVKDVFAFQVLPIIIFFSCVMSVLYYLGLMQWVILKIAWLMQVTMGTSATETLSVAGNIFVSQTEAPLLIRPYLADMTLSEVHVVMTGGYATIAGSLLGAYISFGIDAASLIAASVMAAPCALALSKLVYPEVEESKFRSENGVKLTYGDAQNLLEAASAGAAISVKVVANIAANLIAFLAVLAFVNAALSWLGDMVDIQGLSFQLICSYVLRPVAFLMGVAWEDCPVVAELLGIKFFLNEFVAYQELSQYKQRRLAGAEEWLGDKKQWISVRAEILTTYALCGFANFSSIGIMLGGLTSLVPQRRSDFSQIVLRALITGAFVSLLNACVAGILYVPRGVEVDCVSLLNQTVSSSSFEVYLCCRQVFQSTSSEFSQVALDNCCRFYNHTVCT
Description: (§1) Oocytes were injected with water or RNA transcribed in vitro from the nucleoside transporter cDNA (pQQH1). […] For panels c and d, the permeant concentration was 10 μM and competing nonradioactive nucleosides were present at a concentration of 1 mM.
(§2) Remaining template was removed by digestion with RQ1 DNase. Oocytes were treated with collagenase to remove follicular layers (Huang et al, 1993) and injected with 10 ng of pQQH1 cRNA or water. […] At the end of the incubation, extracellular label was removed by six rapid ice-cold washes in the appropriate transport buffer. Individual oocytes were dissolved in 5% SDS for quantitation of oocyte-associated ^3 H by liquid scintillation counting (LS 6000 IC, Beckman).

[2] = target: T2, hCNT1b (Homo sapiens, UniProt O00337); assay: inhibition of hCNT1b-mediated influx of [3H]uridine in Xenopus oocytes; assay type: cell-based; settings: uridine 10 μM; for inhibition of uridine fluxes, hCNT1b: competitor 1 mM (FIG. 12B)
T2 sequence (O00337 2-649 V189I/N409S/D521N): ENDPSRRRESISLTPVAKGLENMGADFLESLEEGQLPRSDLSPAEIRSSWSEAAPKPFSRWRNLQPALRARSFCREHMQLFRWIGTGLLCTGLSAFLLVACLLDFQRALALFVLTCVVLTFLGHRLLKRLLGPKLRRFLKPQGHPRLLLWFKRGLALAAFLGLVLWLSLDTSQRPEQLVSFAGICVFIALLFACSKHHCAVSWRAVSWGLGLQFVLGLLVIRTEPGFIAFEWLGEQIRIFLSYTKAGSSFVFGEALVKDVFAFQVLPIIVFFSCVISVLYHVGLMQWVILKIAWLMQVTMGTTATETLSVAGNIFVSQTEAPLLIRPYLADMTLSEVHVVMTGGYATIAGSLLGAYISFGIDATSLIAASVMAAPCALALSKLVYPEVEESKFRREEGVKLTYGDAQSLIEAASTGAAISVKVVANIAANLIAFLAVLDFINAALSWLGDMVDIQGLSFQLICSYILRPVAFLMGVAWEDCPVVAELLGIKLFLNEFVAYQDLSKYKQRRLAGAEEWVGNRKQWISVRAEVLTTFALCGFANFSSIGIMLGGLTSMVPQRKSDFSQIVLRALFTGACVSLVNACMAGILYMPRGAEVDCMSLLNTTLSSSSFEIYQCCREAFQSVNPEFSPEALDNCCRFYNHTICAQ
Description: H2 O, water-injected oocytes.

[3] = target: T3, hCNT1a (Homo sapiens, UniProt O00337); assay: inhibition of hCNT1a-mediated influx of [3H]uridine in Xenopus oocytes; settings: uridine 10 μM; for inhibition of uridine fluxes, hCNT1a: competitor 1 mM (FIG. 12A), guanosine also in FIG. 13
T3 sequence (O00337 with tags, fused parts or gaps E34G/INS140V): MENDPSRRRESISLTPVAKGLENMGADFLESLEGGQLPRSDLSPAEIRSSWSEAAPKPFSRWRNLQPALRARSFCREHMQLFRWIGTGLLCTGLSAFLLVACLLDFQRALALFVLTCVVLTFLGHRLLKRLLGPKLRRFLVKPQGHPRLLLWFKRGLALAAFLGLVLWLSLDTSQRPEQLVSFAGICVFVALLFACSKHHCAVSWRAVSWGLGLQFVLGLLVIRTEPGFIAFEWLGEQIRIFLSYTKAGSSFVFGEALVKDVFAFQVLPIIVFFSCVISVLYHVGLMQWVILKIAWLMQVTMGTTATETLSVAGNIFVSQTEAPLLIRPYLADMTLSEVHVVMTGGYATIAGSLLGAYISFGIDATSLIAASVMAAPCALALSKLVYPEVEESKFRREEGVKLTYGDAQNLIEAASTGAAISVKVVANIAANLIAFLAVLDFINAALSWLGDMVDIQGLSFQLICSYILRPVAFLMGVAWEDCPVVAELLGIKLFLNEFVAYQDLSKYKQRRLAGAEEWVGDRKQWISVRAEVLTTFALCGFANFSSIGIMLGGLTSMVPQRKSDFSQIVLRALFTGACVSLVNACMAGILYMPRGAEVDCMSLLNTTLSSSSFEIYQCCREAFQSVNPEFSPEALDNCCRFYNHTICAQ
Description: H2 O, water-injected oocytes. Fluxes were not corrected for the contribution of endogenous transport activity.
(§3) Defolliculated oocytes (Huang et al. 1993) were injected with either 10 nl of water containing 10 ng RNA transcript or 10 nl of water alone. Nucleoside uptake was measured after 3 d and was traced with the respective [^3 H] or [^14 C]nucleoside (Moravek Biochemicals)(5 μC 3H/ml, 1 μC 14C/ml). […] The transport buffer for adenosine influx experiments contained 1 μM deoxycoformycin to inhibit adenosine deaminase activity. Results are presented as means ±SEM for 10-12 individual oocytes. Kinetic constants were determined by non-linear regression analysis (ENZFITTER, Elsevier-Biosoft). Each experiment was performed at least twice on different batches of oocytes.

[4] = system: human erythrocyte es transporter; settings: cited from earlier work
[5] = system: human erythrocytes; settings: cited from earlier work
[6] = target: T1, CNT1; assay: uptake/influx of radiolabelled nucleosides in Xenopus oocytes injected with pQQH1 (rat CNT1) cRNA; assay type: cell-based; settings: for Vmax: rat CNT1, permeant = labelled substance
Description: as §1
Oocytes injected with water or in vitro transcribed RNA from pQQH1 were incubated with radiolabeled permanent (10 μM) for 30 min (open columns) or 1 h (hatched columns) at 20° C. Each value represents the mean ±S. E. of 8-10 ooctyes.
as §2

[7] = target: T2, hCNT1b; assay: influx of radiolabelled nucleosides in Xenopus oocytes injected with hCNT1b RNA transcript; assay type: cell-based
Description: as §3

[8] = target: T3, hCNT1a; assay: influx of radiolabelled nucleosides in Xenopus oocytes injected with hCNT1a RNA transcript
Description: Oocytes were injected with either water alone or water containing hCNT1a RNA transcript.
Oocytes were injected with either water alone (.tangle-solidup.) or water containing hCNT1a RNA transcript (.smallcircle.,.circle-solid.).
Adenosine, guanosine and AZT (10 μM) fluxes were compared in the same batch of oocytes injected either with water (open columns) or with RNA transcript for hCNT1a or rCNT1 (hatched and solid columns, respectively).
as §3

[9] = system: rat jejunum; assay: uptake of [3H]AZT by rat jejunum in vivo
[10] = substrate: O=c1ccn([C@@H]2O[C@H](CO)[C@@H](O)[C@H]2O)c(=O)[nH]1; assay: cells, lysate or membranes; settings: other: hCNT1a; 20.0 °C
[11] = 10 μM, same experiment as adenosine (FIG. 14A)

For `O=c1ccn([C@@H]2O[C@H](COP(=O)(O)OP(=O)(O)O)[C@@H](O)[C@H]2O)c(=O)[nH]1` [UDP], the “effect on expressed uridine fluxes/transport” value [1] was “no effect”.

With `O=c1ccn([C@@H]2O[C@H](COP(=O)(O)O)[C@@H](O)[C@H]2O)c(=O)[nH]1` [UMP] the “effect on expressed uridine fluxes/transport” value [1] was “no effect”.

In the case of `O=c1ccn([C@@H]2O[C@H](COP(=O)(O)OP(=O)(O)OP(=O)(O)O)[C@@H](O)[C@H]2O)c(=O)[nH]1` [UTP], the “effect on expressed uridine fluxes/transport” value [1] is reported as “no effect”.

With `O=c1cc[nH]c(=O)[nH]1` [Uracil] the “effect on expressed uridine fluxes/transport” value [1] was “no effect”.

With `Nc1ccn([C@@H]2O[C@H](CO)[C@@H](O)[C@H]2O)c(=O)n1` [cytidine] the “inhibition of uridine fluxes, hCNT1b” value [2] was “inhibited”, the “inhibition of uridine fluxes, hCNT1a” value [3] was “inhibited” and the “selective inhibition of uridine and thymidine fluxes (rCNT1)” value (from here on “selective inhibition … (rCNT1)”) [1] was “selective inhibition”.

In the case of `Nc1ccn([C@H]2CC[C@@H](CO)O2)c(=O)n1` [ddC, 2',3'-dideoxycytidine], the Km ([4]; Domin et al, 1993) is listed as 23000 µM, the “transport by equilibrative nucleoside transporters” value [4] is listed as “low affinity es substrate” and the “rate of entry into human erythrocytes relative to those of thymidine and cytidine” value [5] is listed as less than 2%. For the same molecule, the “inhibition of hCNT1b-mediated influx of uridine” value ([2]; analog 5 mM (FIG. 12B)) was “inhibited”, the “inhibition of hCNT1a-mediated influx of uridine” value ([3]; analog 5 mM (FIG. 12A)) was “inhibited” and the CNT1-mediated uptake/transport ([6]; 10 μM permeant) was “large increases”. The “Na+ dependence of initial rate of expressed uptake” value ([6]; 10 μM, 10-min flux) was 93%, the Vmax [6] was 20 pmol/oocyte.min^-1 and the IC50 [1] was less than 1000 µM.

In the case of `Nc1nc2c(ncn2[C@H]2CC[C@@H](CO)O2)c(=O)[nH]1` [ddG, 2',3'-dideoxyguanosine], the “effect on expressed uridine fluxes/transport” value [1] is reported as “no effect”.

In the case of `OC[C@@H]1CC[C@H](n2cnc3c(O)ncnc32)O1` [ddl, 2',3'-dideoxyinosine], the “effect on expressed uridine fluxes/transport” value [1] is reported as “no effect”.

In the case of `Nc1nc2c(ncn2[C@@H]2O[C@H](CO)[C@@H](O)[C@H]2O)c(=O)[nH]1` [guanosine], the “inhibition of uridine fluxes, hCNT1b” value [2] is reported as “not”, the “inhibition of uridine fluxes, hCNT1a” value [3] is reported as “not and not inhibited” and the “fluxes, hCNT1b (results not shown)” value [7] is reported as “very low guanosine fluxes”. The “mediated flux, rCNT1” value ([6]; 10 μM permeant (FIG. 14)) was 0.05±0.01 pmol/oocyte.10 min^-1, the “permeant quality, hCNT1” value [8] was “poor CNT1 permeant; also recorded: poor hCNT1 permeants” and the “mediated flux, hCNT1a” value ([8]; 10 μM permeant (FIG. 14)) was 0.06±0.01 pmol/oocyte.10 min^-1. For the same molecule, the “selective inhibition … (rCNT1)” value [1] was “>>guanosine, inosine”.

For `OC[C@H]1O[C@@H](n2cnc3c(O)ncnc32)[C@H](O)[C@@H]1O` [inosine], the “inhibition of uridine fluxes, hCNT1b” value [2] was “not”, the “inhibition of uridine fluxes, hCNT1a” value [3] was “not” and the “selective inhibition … (rCNT1)” value [1] was “>>guanosine, inosine”.

With `Cc1cn([C@H]2C[C@H](O)[C@@H](CO)O2)c(=O)[nH]c1=O` [thymidine] the “inhibition of uridine fluxes, hCNT1b” value [2] was “inhibited”, the “inhibition of uridine fluxes, hCNT1a” value [3] was “inhibited” and the “selective inhibition … (rCNT1)” value [1] was “selective inhibition”.

With `O=c1ccn([C@@H]2O[C@H](CO)[C@@H](O)[C@H]2O)c(=O)[nH]1` [uridine] the “inhibition of [3H]AZT uptake by rat jejunum in vivo” value [9] was “inhibited by uridine”, the “inhibition of uridine fluxes, hCNT1b” value [2] was “inhibited” and the “inhibition of uridine fluxes, hCNT1a” value [3] was “inhibited”. For the same molecule, the “Vmax, influx of uridine” value ([7]; hCNT1b) was 22±2 pmol/oocyte.min^-1, the Km ([7]; read-out: apparent Km, influx of uridine, hCNT1b) was 37 ± 10 µM and the “intracellular concentration higher than that in the extracellular medium” value ([6]; 10 μM uridine, 30 min) was “approximately 6 -fold”. For the same molecule, the “cellular content of uridine after 30 min” value ([6]; 10 μM, 20° C., 30 min, pQQH1 cRNA-injected) was 64 pmol/oocyte, the “uridine flux, rCNT1” value [6, 11] was 5.60±0.38 pmol/oocyte.min^-1 and the “effect of substitution of Cl- by gluconate on flux” value ([6]; 100 mM NaCl or sodium gluconate, 10 mM HEPES, pH 7.6) was “unaffected”. The “Vmax (uridine transport)” value ([6]; rat CNT1) was 21 pmol/oocyte-min^-1, the Vmax [6] was 21 pmol/oocyte.min^-1 and the “uridine influx in Na+-medium” value ([8]; 10 μM, 100 mM NaCl (FIG. 9)) was 4.88±0.70 pmol/oocyte.min^-1. The “uridine influx in choline-medium” value ([8]; 10 μM, 100 mM choline chloride (FIG. 9)) was 0.18±0.01 pmol/oocyte.min^-1, the “uridine flux, hCNT1a” value [8, 11] was 3.68±0.46 pmol/oocyte.min^-1 and the “Na+-independent uridine influx” value ([8]; 50 μM uridine (FIG. 11)) was 0.81±0.14 pmol/oocyte.min^-1. The “Vmax, influx of uridine” value ([8]; hCNT1a) was 26±1 pmol/oocyte.min^-1, the inhibition at 1000 µM ([1]; read-out: inhibition of expressed AZT uptake) was greater than 95% and the inhibition at 1000 µM ([1]; read-out: inhibition of expressed ddC uptake) was greater than 95%.

B1: hCNT1a (Homo sapiens) (protein)
chain: T3 sequence (O00337 with tags, fused parts or gaps E34G/INS140V)
Work on B1 yielded a Km [10] of 45 ± 8 µM.
